In patent US20100255104A1, “PHARMACEUTICAL FORMULATION OF TAXANE” (ERIOCHEM S.A., priority 2007, published 2010):

Legend:
[1] = Laboratory solubility tests of docetaxel API versus lyophilized solid composition in tensoactives; assay type: physicochemical; conditions: for solubility in a tensoactive aqueous solution: direct dissolution
[2] = Chemical stability test of solubilized docetaxel by HPLC; assay type: physicochemical; conditions: vial of Example 3, solubilizing composition with 15% DMA, 25° C., 60% relative humidity
Protocol: The vial of Example 3 containing a solubilizing composition of 15% DMA was subjected to a chemical stability test described as follows:
Immediately after solubilizing docetaxel and at periods of 2, 4, 6 and 8 hours starting from that moment, a sample is taken from the vial using a disposable syringe (1 ml, Darling) with a disposable hypodermic needle (50×8-21Gx2, Neojet). The volume of the sample was 0.5 ml and each sample was weighed and diluted up to a final volume of 10 ml with the mobile phase to be used in HPLC. Reconstituted material remained in a chamber at 25° C. and 60% room relative humidity during the test time.
Mobile phase: Filtered and deaerated mixture of acetonitrile, Methanol, water (26:32:42 v:v:v). The column used was Beckman stainless steel (Ultrasphere ODS of 4.6 mm×25 cm, 5 μm, part N° 235329). The guard column used was Beckman (Ultrasphere ODS of 4.6 mm×4.5 cm, 5 μm, part N° 243533). The detector used was UV type, Waters 2487 dual and the measure was done at wave length 232 nm. The volume injected was 20 μl, using a Waters 717 plus autosampler, and samples were maintained in the autosampler at 4° C. after preparation until the moment of being injected. Retention time for docetaxel is approximately 25 min and run time is 90 min. Flow rate remained 1.0 ml/min using a Waters 1525 binary pump for HPLC. The software used was Breeze version 3.30. The column temperature was 40° C. A standard for the assessment and determination of related substances was prepared, weighing exactly 20 mg of standard docetaxel in a volumetric flask of 50 ml; it was dissolved with 5 ml ethanol and was diluted up to final volume with mobile phase. A solution of impurity 10-deacethilbaccatine III was prepared in order to detect and quantify it in a chromatogram, weighing 5 mg of 10-deacethilbaccatine III, dissolving with 1 ml ethanol and diluting up to final volume, 10 ml, with mobile phase in a volumetric flask. In the same way, a solution of impurity 7-epi-docetaxel was prepared, weighing 10 mg of docetaxel, 10 ml of NaOH 0.005 N were added. It was left to stand for 2 hours; 2.5 ml of ethanol were added and it was diluted to final volume, 25 ml with mobile phase.

Compound | solubility in pure polysorbate 80 [1] | solubility in a tensoactive aqueous solution [1] | Docetaxel concentration (percentage of area ratio) ([2]; time 0 hours) | Docetaxel concentration (percentage of area ratio) ([2]; time 2 hours) | Docetaxel concentration (percentage of area ratio) ([2]; time 4 hours) | Docetaxel concentration (percentage of area ratio) ([2]; time 6 hours) | Docetaxel concentration (percentage of area ratio) ([2]; time 8 hours)
CC(=O)O[C@@]12CO[C@@H]1C[C@H](O)[C@@]1(C)C(=O)[C@H](O)C3=C(C)[C@@H](OC(=O)[C@H](O)[C@@H](NC(=O)OC(C)(C)C)c4ccccc4)C[C@@](O)([C@@H](OC(=O)c4ccccc4)[C@H]21)C3(C)C [anhydrous docetaxel] | very difficultly | cannot be dissolved directly | – | – | – | – | –
CC(=O)O[C@@]12CO[C@@H]1C[C@H](O)[C@@]1(C)C(=O)[C@H](O)C3=C(C)[C@@H](OC(=O)[C@H](O)[C@@H](NC(=O)OC(C)(C)C)c4ccccc4)C[C@@](O)([C@@H](OC(=O)c4ccccc4)[C@H]21)C3(C)C [Docetaxel] | – | – | 99.61 percentage of area ratio | 99.59 percentage of area ratio | 99.57 percentage of area ratio | 99.57 percentage of area ratio | 99.54 percentage of area ratio
CC(=O)O[C@@]12CO[C@@H]1C[C@H](O)[C@@]1(C)C(=O)[C@H](O)C3=C(C)[C@@H](OC(=O)[C@H](O)[C@@H](NC(=O)OC(C)(C)C)c4ccccc4)C[C@@](O)([C@@H](OC(=O)c4ccccc4)[C@H]21)C3(C)C.O.O.O [trihydrate docetaxel] | very difficultly | cannot be dissolved directly | – | – | – | – | –
